In general, inhibition refers to the percentage by which the read-out fell short of the control. Read a high inhibition as strong suppression.

This note sets out measurements from US12617777B2, “GPR84 antagonists and uses thereof” (Liminal BioSciences Limited, priority 2021, dated 2026).

Structures are written as SMILES. Where only a bound is given, the exact number is not on record here.

For one experiment, the target named is T1, human GPR84 receptor (Homo sapiens, UniProt Q9NQS5).
T1 construct: host or cells: HEK293, transient transfection
Kind of experiment: Gαi biosensor BRET assay in HEK293 cells (antagonism of ZQ-16). It counts as cell-based. The note with it: for inhibition at 10 µM: HEK293, single concentration 10 μM (designated F); for IC50: HEK293 cells, antagonism of 200 nmol/L ZQ-16; for inhibition at 2 µM: HEK293, single concentration 2 μM (designated A); for inhibition at 25 µM: HEK293, single concentration 25 μM (designated I); for inhibition at 5 µM: HEK293, single concentration 5 μM (designated D). In a few lines:
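HEK293 cells transiently expressing human GPR84, Gαi2-Rluc8, GFP10-Gγ2 and Gβ1, in Tyrode's buffer pH 7.5. Compounds preincubated 5 min at 37° C, then 200 nmol/L ZQ-16 for 5 min at room temperature; coelenterazine 400A 5 μmol/L. BRET2 acceptor/donor ratio, background- and vehicle-corrected net BRET.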
(In general: BRET reads energy transfer from a luciferase to a nearby fluorophore.)

For another experiment, the system named is neutrophils. Kind of experiment: Neutrophil migration assay (embelin as chemotactic agent, ATPlite readout). The experiment is classed as cell-based. The note with it: for IC50: Neutrophil, human neutrophils, embelin as chemotactic agent, read-out: Human Neutrophil migration inhibition IC50; for Human Neutrophil migration inhibition - fold potency to Control Compound: normalized to GPR84 antagonist Control Compound (average IC50 131 nM). The method, then:
Neutrophil migration assay. After isolation, neutrophils were resuspended in chemotaxis buffer (DMEM supplemented with 10 mM HEPES) at a concentration of 8.9×10^6 cells/ml. In a 96-well plate, 20 μl of compound solution in chemotaxis buffer is added to 180 μl of cell suspension. After incubation at 37° C. for 30 minutes, 75 μl of cell suspension is transferred in the upper chamber of a 5 μm pore size Corning HTS transwell. 235 μl of chemotaxis buffer containing the chemotactic agent (embelin) is added to the lower chamber of the transwell. After a 60-minute incubation time at 37° C. in 5%0 C02, the upper chamber of the transwell is removed and the plate is centrifuged at 1500 rpm for 6 minutes. Supermatant is removed and cells resuspended in 100 ul of PBS. ATP content was assessed using ATPlite Luminescence Assay System® according to manufacturer instructions (Perkin Elmer, Buckinghamshire, UK). Briefly, 50 μl of ATPlite buffer and 50 μl of lysis solution is added to the lower chamber of the Transwells. After incubation at room temperature, in the dark with constant agitation for 5 minutes, 150 μl of cell lysate is transferred in a 96 wells white plate and incubated for 10 minutes in the dark. Luminescence is read on a TECAN plate reader, Infinite M1000 (Tecan, Morrisville, NC).
The compound numbers correspond to the compound numbers in Table 1. […] Normalization of the results takes the donor's variation into account.
In general terms: Cellular ATP, detected with luciferase, serves as a proxy for viable cell number.

T1 sequence (Q9NQS5 whole entry): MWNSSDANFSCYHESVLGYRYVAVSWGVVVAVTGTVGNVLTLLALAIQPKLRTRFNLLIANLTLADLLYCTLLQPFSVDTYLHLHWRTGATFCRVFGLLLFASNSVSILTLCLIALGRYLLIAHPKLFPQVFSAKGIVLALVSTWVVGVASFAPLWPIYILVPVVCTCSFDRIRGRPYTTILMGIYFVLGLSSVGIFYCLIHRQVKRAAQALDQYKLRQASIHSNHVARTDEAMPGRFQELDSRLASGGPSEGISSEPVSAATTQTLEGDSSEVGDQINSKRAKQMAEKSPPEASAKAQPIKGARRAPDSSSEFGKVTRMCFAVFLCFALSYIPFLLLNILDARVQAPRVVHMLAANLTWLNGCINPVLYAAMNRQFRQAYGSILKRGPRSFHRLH

As to `Cc1ccc(C#CC2CC2)cc1-n1nc(CC2CCCO2)oc1=O` (centres unmarked) [Compound I-17], on human GPR84 receptor, the inhibition at 10 µM was > 75% and the IC50 was 300 to 1000 nM. Further, in the experiment with neutrophils, the IC50 is ≤ 300 nM and the “Human Neutrophil migration inhibition - fold potency to Control Compound” value was “B (IC50 of >0.5-≤1.0-fold relative to Control Compound)”.
Turning to `CO[C@H](c1cn(C[C@@H]2CCCCO2)nn1)c1cc(C#CC2CC2)ccc1C` [Compound I-512], at human GPR84 receptor, the inhibition at 2 µM was > 75% and the IC50 was 300 to 1000 nM. Also, in the experiment with neutrophils, the IC50 was ≤ 300 nM and the “Human Neutrophil migration inhibition - fold potency to Control Compound” value is listed as “C (IC50≤0.5-fold relative to Control Compound)”.
As for `Cc1ccc(C#CC2CC2)cc1-c1cn(CC2CCCCO2)nn1` (centres unmarked) [Compound I-65], on human GPR84 receptor, the inhibition at 25 µM was > 75% and the IC50 was 1000 to 3000 nM. In the experiment with neutrophils, the IC50 lay within 1000 to 3000 nM and the “Human Neutrophil migration inhibition - fold potency to Control Compound” value was “C (IC50≤0.5-fold relative to Control Compound)”.
Molecule `Cc1ncn(CC2CCCCO2)c1-c1ccc(C#CC2CC2)cc1` (centres unmarked) [Compound I-335] gave an inhibition at 25 µM at human GPR84 receptor of 25 to 50%.
Turning to `CCc1ccc(C#CC2CC2)cc1-n1nc(CC2CCCCO2)oc1=O` (centres unmarked) [Compound I-20], on human GPR84 receptor, the inhibition at 10 µM was > 75%.
Consider `Cc1ccc(C#CC2CC2)cc1C(CC1CC1)c1cn(CC2OCC(C)(C)CO2)nn1` (centres unmarked) [Compound I-714], for which, at human GPR84 receptor, the inhibition at 2 µM is > 75% and the IC50 was in the range of 1000 to 3000 nM.
Take `Cc1cc(C#CCNC(=O)Oc2ccccc2)ccc1-c1cn(CC2CCCCO2)nn1` (centres unmarked) [Compound I-619]: on human GPR84 receptor, the inhibition at 10 µM was > 75% and the IC50 is ≤ 300 nM.
On to `O=c1oc(CC2CCCCO2)nn1Cc1cccc(C#CC2CC2)c1` (centres unmarked) [Compound I-18, 3-(3-(cyclopropylethynyl)benzyl)-5-((tetrahydro-2H-pyran-2-yl)methyl)-1,3,4-oxadiazol-2(3H)-one], for which, on human GPR84 receptor, the inhibition at 10 µM lay in the range of 50 to 75%.
As for `COC(c1cn(CC2OCC(F)(F)CO2)nn1)c1cc(C#CC2CC2)c(F)cc1C` (centres unmarked) [Compound I-723], the inhibition at 10 µM against human GPR84 receptor was > 75%.
Same read-out and setting: the value for `Cc1cc(N2CC3(CN(Cc4ccccn4)C3)C2)ccc1-c1cn(CC2CCCCO2)nn1` (centres unmarked) [Compound I-429] was 25 to 50%.
As for `Cc1c(-c2ccc(C#CC3CC3)cc2)ncn1CC1CCCCO1` (centres unmarked) [Compound I-334], the inhibition at 25 µM against human GPR84 receptor is > 75%.
On to `CC(C)c1cc(C#CCN2CC(C)(C)C2)cnc1-c1cn(CC2OCC(C)(C)CO2)nn1` [Compound I-727], for which, on human GPR84 receptor, the inhibition at 2 µM is > 75% and the IC50 lay within 300 to 1000 nM.
For the molecule `COC(=O)N1CCOC(Cn2cc(-c3ccc(C#CC4CC4)cc3C)nn2)C1` (centres unmarked) [Compound I-105], on human GPR84 receptor, the inhibition at 10 µM is ≤ 25%.
With `CC1(C)COC(Cn2cnc(-c3ncc(C#CC4CC4)cc3OC3CC3)c2)OC1` [Compound I-831], at human GPR84 receptor, the inhibition at 2 µM is > 75% and the IC50 is ≤ 300 nM.
Regarding `Cc1cc(N2CCNCC2)ccc1-c1cn(CC2CCCCO2)nn1` (centres unmarked) [Compound I-183], the inhibition at 10 µM at human GPR84 receptor is ≤ 25%.
In the case of `Cc1cc(CN2CCOCC2)ccc1-c1cn(CC2CCCCO2)nn1` (centres unmarked) [Compound I-74], the inhibition at 25 µM against human GPR84 receptor is 25 to 50%.
Consider `Cc1cc(C#CC2CC2)ccc1-c1cn(CC2Cc3ccccc3O2)nn1` (centres unmarked) [Compound I-363], for which the inhibition at 3 µM against human GPR84 receptor (HEK293, single concentration 3 μM (designated B)) lay within 25 to 50%.
Turning to `CC1(C)COC(Cn2cnc(-c3ncc(C#CCN4CC(C)(C)C4)cc3OC3CC3)c2)OC1` [Compound I-845], the inhibition at 10 µM against human GPR84 receptor was > 75%.
With `COC(=O)NCC#Cc1cnc(-c2cn(CC3CCCCO3)nn2)c(C)c1` (centres unmarked) [Compound I-573], the inhibition at 10 µM at human GPR84 receptor was > 75%.
In the case of `Cc1cc(N2CC3(CCCN3c3ccccn3)C2)ccc1-c1cn(CC2OCC(C)(C)CO2)nn1` [Compound I-689], at human GPR84 receptor, the inhibition at 10 µM was > 75% and the IC50 was in the range of 1000 to 3000 nM.
Regarding `Cc1cc(C#CC2CC2)ccc1-c1cn(Cc2ncccn2)nn1` [Compound I-262], the inhibition at 10 µM against human GPR84 receptor fell in the range of 50 to 75%.
Turning to `Cc1cc(N2CC(C)(CNc3ccccn3)C2)ccc1-c1cn(CC2OCC(C)(C)CO2)nn1` [Compound I-673], at human GPR84 receptor, the inhibition at 2 µM was > 75% and the IC50 is ≤ 300 nM.
For the molecule `Cc1cc(N2CC(C)(N(C)C)C2)ccc1-c1cn(CC2CCCCO2)nn1` (centres unmarked) [Compound I-470], the inhibition at 10 µM at human GPR84 receptor was ≤ 25%.
For `Cc1ccc(C#CC2CC2)cc1N(C)c1cn(CC2OCC3(CC3)CO2)nn1` [Compound I-842], the inhibition at 2 µM at human GPR84 receptor lay in the range of 50 to 75%.
For the molecule `Cc1cc(N2CC(C)(C)C2)cnc1-c1cn(CC2OCC(C)(C)CO2)cn1` [Compound I-726], the inhibition at 10 µM at human GPR84 receptor is > 75%.
For `CC(C)Oc1cc(N2CC(C)(CO)C2)ccc1-c1cn(CC2CC(C)(C)O2)nn1` (centres unmarked) [Compound I-677], on human GPR84 receptor, the inhibition at 2 µM is > 75% and the IC50 is ≤ 300 nM.
As to `Cc1cc(N2CCCC(N(C)C)C2)ccc1-c1cn(CC2CCCCO2)nn1` (centres unmarked) [Compound I-153], at human GPR84 receptor, the inhibition at 10 µM is ≤ 25%.
Regarding `Cc1ccc(C#CC2CC2)cc1-n1nc(CC2CC(F)(F)CCO2)oc1=O` (centres unmarked) [Compound I-494, 3-(5-(cyclopropylethynyl)-2-methylphenyl)-5-((4,4-difluorotetrahydro-2H-pyran-2-yl)methyl)-1,3,4-oxadiazol-2(3H)-one], the inhibition at 10 µM at human GPR84 receptor is > 75%.
Still for that read-out and setting: the value for `C(#CC1CC1)c1ccc2c(c1)CCc1c-2nnn1CC1CCCCO1` (centres unmarked) [Compound I-303, 7-(cyclopropylethynyl)-3-((tetrahydro-2H-pyran-2-yl)methyl)-4,5-dihydro-3H-naphtho[1,2-d][1,2,3]triazole] was ≤ 25%; that for `Cc1cc(N2CC(C)(O)C2)ccc1-c1cn(CC2CCCCO2)nn1` (centres unmarked) [Compound I-524] was ≤ 25%.
With `CN(C)c1cc(N2CC(C)(CO)C2)ccc1-c1cn(CC2OCC3(CC3)CO2)nn1` [Compound I-748], on human GPR84 receptor, the inhibition at 2 µM was > 75% and the IC50 was ≤ 300 nM.
At human GPR84 receptor, `Cc1cc(N2CC(C)(C)C2)ccc1-c1cn(CC2CCCCO2)nn1` (centres unmarked) [Compound I-864] registered an inhibition at 10 µM of 25 to 50% and an IC50 of 300 to 1000 nM.
As for `c1ccc(COc2ccc3c(c2)CCc2cnn(CC4CCCCO4)c2-3)cc1` (centres unmarked) [Compound I-331], at human GPR84 receptor, the inhibition at 10 µM was ≤ 25%.
Consider `Cc1cc(N2CCC3(CC2)CNC3)ccc1-c1cn(CC2CCCCO2)nn1` (centres unmarked) [Compound I-186], for which the inhibition at 5 µM at human GPR84 receptor was ≤ 25%.
`COC(C)(C)Cn1cc(-c2ccc(C#CCNc3ccccc3)cc2C)nn1` [Compound I-163]: the inhibition at 10 µM against human GPR84 receptor is ≤ 25%.
For `Cc1cc(N2CCN(Cc3ccccn3)CC2)ccc1-c1cn(CC2OCC3(CC3)CO2)cn1` [Compound I-795], at human GPR84 receptor, the inhibition at 10 µM lay in the range of 25 to 50% and the IC50 is ≤ 300 nM.
The matching figures for `Cc1ccccc1-c1cn(CC#Cc2ccc(-c3cn(CC4CCCCO4)nn3)c(C)c2)nn1` (centres unmarked) [Compound I-488]: 50 to 75% and ≤ 300 nM.
Take `Cc1cc(C#CC2CC2)ccc1-c1nn(C[C@H]2CCCCO2)nc1C` [Compound I-345]: on human GPR84 receptor, the inhibition at 10 µM was ≤ 25%.
As for `COCC#Cc1cnc(-c2cn(CC3OCC4(CC4)CO3)nn2)c(OC2CC2)c1` [Compound I-833], at human GPR84 receptor, the inhibition at 10 µM was ≤ 25% and the IC50 is ≤ 300 nM.
On human GPR84 receptor, `Cc1cc(C#CC2CC2)ccc1-c1cn(C[C@H]2CCCCO2)nn1` [Compound I-175] returned an inhibition at 5 µM of 50 to 75% and an IC50 of 1000 to 3000 nM.
As to `CCc1cc(C#CCN2CC(C)(C)C2)cnc1-c1cn(CC2OCC(C)(C)CO2)nn1` [Compound I-666], at human GPR84 receptor, the inhibition at 2 µM is > 75% and the IC50 was ≤ 300 nM.
Regarding `CN(C)c1cc(N2CC3(COC3)C2)ccc1-c1cn(CC2OCC(C)(C)CO2)nn1` [Compound I-756], on human GPR84 receptor, the inhibition at 10 µM was > 75% and the IC50 lay within 300 to 1000 nM.
`Cc1cc(N2CC(C)C2)ccc1-c1cn(CC2CCCCO2)nn1` (centres unmarked) [Compound I-264] gave an inhibition at 10 µM against human GPR84 receptor of 50 to 75%.
On to `Cc1cc(N2CCN(Cc3ccccn3)CC2)ccc1-c1cn(CC2CCCCO2)nn1` (centres unmarked) [Compound I-237], for which, on human GPR84 receptor, the inhibition at 10 µM is > 75% and the IC50 was 1000 to 3000 nM.
Regarding `C(#CC1CC1)c1ccc(-c2cn(C[C@H]3COc4ccccc4O3)nn2)cc1` [Compound I-23], the inhibition at 25 µM against human GPR84 receptor is ≤ 25%.
On to `Cc1cc(C#CC2CC2)ccc1-c1cn(CC2OCCO2)nn1` [Compound I-457], for which the inhibition at 10 µM on human GPR84 receptor is ≤ 25%.
With `c1ccc(COc2ccc3c(c2)CCc2cn(CC4CCCCO4)nc2-3)cc1` (single isomer, unassigned) [Compound I-330], at human GPR84 receptor, the inhibition at 10 µM was ≤ 25% and the IC50 was in the range of 300 to 1000 nM.
As to `Cc1cc(C#CC2CC2)ccc1-c1cn(CC2CCCCN2S(C)(=O)=O)nn1` (centres unmarked) [Compound I-191], the inhibition at 10 µM against human GPR84 receptor is ≤ 25%.
